Reference: PubChem BioAssay AID1919004 (Molecular Pharmacology Branch, DTP, NCI, 2023)
pIC50: −log10 of the molar value. Several values for one entry are separate records, joined by “and”; a condition that tells them apart may be missing. Equal entries are not always repeated. One block for each compound: values may come before it.

System: 883617-216-R-J1-PDC complex spheroids, growth, % test/control
Experiment: Anticancer human tumor 883617-216-R-J1-PDC patient-derived bladder carcinoma cell line growth inhibition [AhR]
Conditions: for viability, T/C: stronger effect = lower value
Method in brief: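 Complex tumor spheroids co-cultured with HUVEC and human MSC stroma; AhR antagonists tested in combination with standard-of-care and investigational agents. Top concentration at or near clinical Cmax (else 10 microM), half-log dilutions; growth expressed as percent test/control.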

[1] = curve of first compound, second compound 0.1 µM
[2] = curve of first compound, second compound 0.316 µM
[3] = curve of first compound, second compound 1 µM
[4] = curve of first compound, second compound 3.16 µM
[5] = curve of first compound, second compound 10 µM
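Note: exposure lasted 7 days after dosing on day 3 of spheroid growth.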

pIC50 (curve of compound): < 5.00
Compound: CC(C)c1c(-c2ccccc2)nc2c(C#N)c[nH]n2c1=O
viability, T/C (compound 0.0316 µM): 101% and 93.4% and 95%
viability, T/C (compound 0.1 µM): 107% and 97.3% and 110%
viability, T/C (compound 0.316 µM): 109% and 96% and 82.6%
viability, T/C (compound 1 µM): 98.6% and 98% and 68.8%
viability, T/C (compound 3.16 µM): 110% and 100% and 82.2%
viability, T/C (compound 10 µM): 105% and 102% and 77.7%

pIC50 [1]: < 6.00
pIC50 [2]: < 6.00
pIC50 [3]: < 6.00
pIC50 [4]: < 6.00
pIC50 [5]: > 8.50
Compound: CC1COCCN1c1cc(-c2ccnn2C)c2ccnc(-c3ccn[nH]3)c2n1 (centres undefined) + Cc1cncc(-c2nc(NCCc3c[nH]c4ccccc34)c3ncn(C(C)C)c3n2)c1
viability, T/C (second compound 0.1 µM, first compound 0.00316 µM): 94.9%
viability, T/C (second compound 0.1 µM, first compound 0.01 µM): 92.8%
viability, T/C (second compound 0.1 µM, first compound 0.0316 µM): 83.7%
viability, T/C (second compound 0.1 µM, first compound 0.1 µM): 76.5%
viability, T/C (second compound 0.1 µM, first compound 0.316 µM): 61.5%
viability, T/C (second compound 0.1 µM, first compound 1 µM): 53.9%
viability, T/C (second compound 0.316 µM, first compound 0.00316 µM): 101%
viability, T/C (second compound 0.316 µM, first compound 0.01 µM): 103%
viability, T/C (second compound 0.316 µM, first compound 0.0316 µM): 98.5%
viability, T/C (second compound 0.316 µM, first compound 0.1 µM): 77.3%
viability, T/C (second compound 0.316 µM, first compound 0.316 µM): 60.2%
viability, T/C (second compound 0.316 µM, first compound 1 µM): 54.5%
viability, T/C (second compound 1 µM, first compound 0.00316 µM): 96.1%
viability, T/C (second compound 1 µM, first compound 0.01 µM): 107%
viability, T/C (second compound 1 µM, first compound 0.0316 µM): 95.9%
viability, T/C (second compound 1 µM, first compound 0.1 µM): 76%
viability, T/C (second compound 1 µM, first compound 0.316 µM): 70.3%
viability, T/C (second compound 1 µM, first compound 1 µM): 60.5%
viability, T/C (second compound 3.16 µM, first compound 0.00316 µM): 115%
viability, T/C (second compound 3.16 µM, first compound 0.01 µM): 113%
viability, T/C (second compound 3.16 µM, first compound 0.0316 µM): 117%
viability, T/C (second compound 3.16 µM, first compound 0.1 µM): 87.6%
viability, T/C (second compound 3.16 µM, first compound 0.316 µM): 72.7%
viability, T/C (second compound 3.16 µM, first compound 1 µM): 55.9%
viability, T/C (second compound 10 µM, first compound 0.00316 µM): 45.3%
viability, T/C (second compound 10 µM, first compound 0.01 µM): 50.8%
viability, T/C (second compound 10 µM, first compound 0.0316 µM): 51.5%
viability, T/C (second compound 10 µM, first compound 0.1 µM): 39.8%
viability, T/C (second compound 10 µM, first compound 0.316 µM): 30.9%
viability, T/C (second compound 10 µM, first compound 1 µM): 27.4%

pIC50 (curve of compound): 5.67 and 5.65 and 5.66
Compound: O=C(C=Cc1cccc(S(=O)(=O)Nc2ccccc2)c1)NO
viability, T/C (compound 0.0316 µM): 107% and 95.8% and 72.5%
viability, T/C (compound 0.1 µM): 112% and 96.7% and 77.7%
viability, T/C (compound 0.316 µM): 92.8% and 76% and 74.6%
viability, T/C (compound 1 µM): 68.9% and 73.4% and 93.9%
viability, T/C (compound 3.16 µM): 40.8% (2×) and 35.7%
viability, T/C (compound 10 µM): 2.89% and 2.67% and 2.49%

pIC50 [1]: 6.57
pIC50 [2]: < 6.52
pIC50 [3]: < 6.52
pIC50 [4]: 6.58
pIC50 [5]: > 9.02
Compound: CCc1c2c(nc3ccc(O)cc13)-c1cc3c(c(=O)n1C2)COC(=O)[C@]3(O)CC + Cc1cncc(-c2nc(NCCc3c[nH]c4ccccc34)c3ncn(C(C)C)c3n2)c1
viability, T/C (second compound 0.1 µM, first compound 0.000949 µM): 85.1%
viability, T/C (second compound 0.1 µM, first compound 0.003 µM): 79.9%
viability, T/C (second compound 0.1 µM, first compound 0.00949 µM): 79%
viability, T/C (second compound 0.1 µM, first compound 0.03 µM): 71.2%
viability, T/C (second compound 0.1 µM, first compound 0.0949 µM): 61.1%
viability, T/C (second compound 0.1 µM, first compound 0.3 µM): 49%
viability, T/C (second compound 0.316 µM, first compound 0.000949 µM): 83.9%
viability, T/C (second compound 0.316 µM, first compound 0.003 µM): 94.5%
viability, T/C (second compound 0.316 µM, first compound 0.00949 µM): 77.5%
viability, T/C (second compound 0.316 µM, first compound 0.03 µM): 65.8%
viability, T/C (second compound 0.316 µM, first compound 0.0949 µM): 56.4%
viability, T/C (second compound 0.316 µM, first compound 0.3 µM): 54.3%
viability, T/C (second compound 1 µM, first compound 0.000949 µM): 87.6%
viability, T/C (second compound 1 µM, first compound 0.003 µM): 89.3%
viability, T/C (second compound 1 µM, first compound 0.00949 µM): 84.7%
viability, T/C (second compound 1 µM, first compound 0.03 µM): 72.5%
viability, T/C (second compound 1 µM, first compound 0.0949 µM): 64.3%
viability, T/C (second compound 1 µM, first compound 0.3 µM): 53.9%
viability, T/C (second compound 3.16 µM, first compound 0.000949 µM): 91.9%
viability, T/C (second compound 3.16 µM, first compound 0.003 µM): 99.5%
viability, T/C (second compound 3.16 µM, first compound 0.00949 µM): 86.1%
viability, T/C (second compound 3.16 µM, first compound 0.03 µM): 88.9%
viability, T/C (second compound 3.16 µM, first compound 0.0949 µM): 55.8%
viability, T/C (second compound 3.16 µM, first compound 0.3 µM): 49.4%
viability, T/C (second compound 10 µM, first compound 0.000949 µM): 44.6%
viability, T/C (second compound 10 µM, first compound 0.003 µM): 48.3%
viability, T/C (second compound 10 µM, first compound 0.00949 µM): 27.3%
viability, T/C (second compound 10 µM, first compound 0.03 µM): 31.3%
viability, T/C (second compound 10 µM, first compound 0.0949 µM): 25.5%
viability, T/C (second compound 10 µM, first compound 0.3 µM): 27.1%
